For orientation: IC50 means the concentration that gives 50% inhibition.

The values that follow come from patent US20230348401A1, “Inhibitors of Glucose-6-phosphate Dehydrogenase and Uses Thereof” (The Trustees of Princeton University, priority 2020, published 2023).

Common to all, as to format: cell-based
Assay [1] concerns mouse CD8+ and CD4+ T cells. The assay is described as follows: Metabolites and 1-2H-glucose tracing in active T cells. As to the method:
Cells were cultured in complete RPMI media (RPMI 1640 supplemented with 10% FBS, 100 U/ml penicillin, 100 µg/ml streptomycin, and 50 µM 2-mercaptoethanol). Naïve T cells were either rested in complete RPMI media supplemented with recombinant IL-7 (50U/mL) or stimulated for 48 hours with plate-bound anti-CD3 (10 µg/ml) and anti-CD28 (5 µg/ml) in complete RPMI media supplemented with 100 µM alanine and recombinant IL-2 (100 U/mL). Activated T cells were maintained in complete RPMI media supplemented with recombinant IL-2 (100 U/mL). All experiments on “active” T cells were performed at day 4-5 post-activation
(§1) For all experiments involving stable isotope tracers (e.g., 1-^2H-glucose), the isotope tracer nutrient was substituted for unlabeled nutrient at the same concentration normally found in the base media for a given cell type (e.g., DMEM for HCT116, RPMI for T cells, etc.). In addition, dialyzed FBS was used as a supplement in place of FBS.
For suspension cells (including T cells and red blood cells), 2×10^6 cells were seeded in 1 mL of media in 12-well plates and incubated with appropriate media, which included isotope tracers and/or chemical inhibitors and/or cytokines, as described. For all experiments involving small molecule agents, DMSO concentrations were <0.2%. After 2 hours, cell suspensions were transferred to 1.5 mL tubes and pelleted (30 seconds, 6000 rpm, room temperature). Media was removed by aspiration and metabolome extraction was performed by the addition of 75 µL of ice cold solvent (40:40:20 ACN:MeOH:H2O + 0.5%FA). After a 5-minute incubation on ice, acid was neutralized by the addition of NH4HCO3. After centrifugation (15 minutes, 16000 rpm, 4° C.), the resulting supernatant was transferred to a clean tube, frozen on dry ice and kept at -80° C. until LC-MS analysis.

Assay [2] addresses T1, G6PD (Homo sapiens, UniProt P11413). The experiment in a line: 6-pg levels in HepG2 cells (cellular target engagement). Set-up: endogenous in cells. Conditions: HepG2 cells; read-out: IC50, decrease in 6-pg levels. An excerpt:
Direct Monitoring of 6-pg in cells. The metabolite 6-phosphogluconate (6-pg) is a downstream product of the G6PD reaction, and is believed to be made predominantly by the oxidative pentose phosphate pathway in mammalian cells. Though the direct product of G6PD is the lactone form of 6-pg (6-phosphogluconolactone), this product is believed to readily hydrolyze to 6-pg under cellular conditions, and is therefore difficult to detect. Thus, to directly monitor the G6PD reaction, methods for measuring 6-pg levels in intact cells were developed.
To explore this possibility further, more specific assays for evaluating G6PD cellular target engagement were developed. […] These included the hepatocellular carcinoma line, HepG2, which was selected as the primary cell for direct 6-pg monitoring. Consistent with the oxPPP being the primary source of 6-pg in these cells, G6PD knockout led to nearly complete 6-pg loss (FIGS. 1B and 1C).
(§2) For analysis of intracellular metabolites by LC-MS, adherent cell lines were plated and grown to 80% confluency in 6-well plates. At the start of an experiment, the appropriate media was added to cells, which included isotope tracers and/or chemical inhibitors as described. Cells were incubated at 37° C. at 5% CO2 for 2 hours (unless otherwise noted). For all experiments involving small molecule agents, DMSO concentrations were <0.2%. After 2 hours, media was removed by aspiration and metabolome extraction was performed (without any wash steps) by the addition of 800 µL of ice cold solvent (40:40:20 acetonitrile:methanol:water + 0.5% formic acid). After a 1-minute incubation on ice, the extract was neutralized by the addition of NH4HCO3 (15% w/v). The samples were incubated at -20° C. for approximately 30 minutes, at which point the wells were scraped and the extract transferred to Eppendorf tubes and centrifuged (15 minutes, 16000 rpm, 4° C.). The resulting supernatant was frozen on dry ice and kept at -80° C. until LC-MS analysis.
Metabolites were analyzed using a quadrupole-orbitrap mass spectrometer (Q Exactive Plus, Thermo Fisher Scientific, Waltham, MA), coupled to hydrophilic interaction chromatography (HILIC) with LC separation on a XBridge BEH Amide column (Waters), or a stand-alone orbitrap (Thermo-Fisher Exactive) coupled to reversed-phase ion-pairing chromatography with LC separation on a HSS-T3 column (Waters). Both mass spectrometers were operating in negative ion mode and were coupled to their respective liquid chromatography methods via electrospray-ionization. Detailed analytical conditions have been previously described.

In assay [3] the target is T1, G6PD. The assay is described as follows: 2H transfer from 1-2H-glucose to NADPH active hydride and C16:0 in HCT116 cells. Conditions: HCT116 cells. Set-up: endogenous in cells; host or cells: HCT116.
Description: Direct Monitoring of NADPH Produced by the G6PD Reaction. […] NADPH production is compartmentalized, and occurs through reduction of its redox partner NADP^+. G6PD is one of the main enzymes that generates NADPH, and catalyzes the transfer of electrons (in the form of hydride) from glucose-6-phosphate to NADP^+. By installing a deuterium at the “one” position of glucose (1-^2H-glucose), the transfer of that deuterium to the active hydride of NADPH via glucose-6-phosphate can be specifically monitored. Also, a major use of cytosolic NADPH is fat synthesis. Transfer of ^2H from glucose via NADPH into free palmitate (C16:0) requires two NADPH per two-carbon unit addition during its synthesis.
Next, G6PD mediated hydride transfer to NADPH was directly monitored. Specifically, transfer of deuterium from 1-^2H-glucose, via glucose-6-phosphate, to the NADPH’s active hydride was monitored (FIG. 1B). […] The impacted step was G6PD, as no change in substrate (G6P) labeling was observed (FIG. 1E). A major use of cytosolic NADPH is fat synthesis. Transfer of ^2H from glucose via NADPH into palmitate (C16:0), which requires two NADPH per 2-carbon unit addition during its synthesis, was quantified (FIG. 1B).
as §1
Cytosolic NADPH sources were traced, and redox active hydride labeling was calculated, using a previously described strategy. 1-^2H-glucose (which directly traces G6PD) or 3-^2H-glucose (which directly traces PGD) were used for tracing oxPPP contribution to NADPH; 4-^2H-glucose for ME1; [2,3,3,4,4-^2H5]-glutamine, for both ME1 and IDH1; and D2O, to account for solvent exchange.
as §2

Molecules are shown by their SMILES. Bounds are passed on as bounds.

T1 sequence (P11413 whole entry): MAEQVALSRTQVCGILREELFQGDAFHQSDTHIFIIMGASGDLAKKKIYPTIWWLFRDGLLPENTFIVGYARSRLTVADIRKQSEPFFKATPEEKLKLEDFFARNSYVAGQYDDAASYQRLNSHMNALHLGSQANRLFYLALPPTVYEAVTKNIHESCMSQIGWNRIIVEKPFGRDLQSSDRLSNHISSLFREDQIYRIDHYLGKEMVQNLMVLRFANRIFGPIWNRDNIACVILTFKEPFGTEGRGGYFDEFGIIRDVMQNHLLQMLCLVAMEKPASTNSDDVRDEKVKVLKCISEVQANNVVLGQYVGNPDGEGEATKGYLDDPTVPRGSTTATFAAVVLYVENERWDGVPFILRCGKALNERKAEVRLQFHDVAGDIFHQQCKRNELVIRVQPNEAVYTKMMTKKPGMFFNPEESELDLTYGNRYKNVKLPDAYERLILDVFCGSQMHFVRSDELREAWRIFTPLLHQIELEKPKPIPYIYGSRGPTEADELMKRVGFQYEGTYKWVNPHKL

Consider `N#Cc1cc(Nc2ncc3c(n2)CCCCC3=O)cs1` [Compound 2, 4-([5-oxo-6H,7H,8H,9H-cyclohepta[d]pyrimidin-2-yl]amino)thiophene-2-carbonitrile], for which the “NADPH and 6-pg levels” value in assay [1] (10 µM, day 4-5 post-activation) is listed as “decreased”. Moreover, the “2H transfer from glucose to NADPH” value in assay [1] (10 µM, day 4-5 post-activation, 1-2H-glucose) is recorded as “completely blocked”. In assay [1] (CD8+ T cells), the fatty acid synthesis result was “nearly completely ablated”. Further, the “time to effects on NADPH labeling and NADP+, NADPH and 6-pg levels” value in assay [1] (active CD8+ T cells, 50 µM) is at most 10 min. Further, the “time to restoration of NADPH, NADP+ and 6-pg levels after removing the inhibitor” value in assay [1] (active T cells) was at most 2 h. For the same compound, the IC50 in assay [2] is around 13 µM; in assay [3] (read-out: IC50, decrease in 2H transfer from 1-2H-glucose to NADPH's active hydride), around 31 µM. Besides, the “2H transfer from 1-2H-glucose to downstream product C16:0” value in assay [3] (dose-response) was “dose-dependent decrease”.
